Each structure is given as a SMILES string.

The subject of experiment [1] is GR induced transactivation (tyrosine amino transferase expression). Kind of experiment: Glucocorticosteroid transactivation assay (tyrosine amino transferase expression in primary hepatocytes). The class given is cell-based. The conditions noted are these: human liver hepatocytes; for inhibition of dexamethasone induced expression of tyrosine amino transferase (antagonism of GR induced transactivation): in presence of 50 nM dexamethasone, FIG. 2b. The text has this: GR modulators of the present invention that inhibit GR induced transactivation can be identified by measuring the amount of tyrosine amino transferase expressed in the presence of the GR induced transactivation in a cell model (human liver hepatocytes).
In this example, dexamethasone induces the expression of tyrosine amino transferase by transactivation. Typically, glucocorticosteroids, such as the synthetic dexamethasone, bind the ligand-binding domain of the glucocorticoid receptor (GR) to promote nuclear translocation. In the nucleus, the DNA binding domain directs dimerization on imperfect DNA palindromes known as simple glucocorticoid response elements (GREs) to transcriptionally activate genes including tyrosine amino transferase (TAT).
Primary hepatocytes were distributed in 96-well collagen coated plates and equilibrated in media (without hydrocortisone) for 6 hours. Compounds were tested at 6 concentrations (semi-log dilutions) and prepared in 0.2% DMSO in the presence of 50 nM dexamethasone or media. Hepatocytes in the presence of compound were incubated for 24 hours, washed in PBS and lysed for 30 minutes (30 μl lysis volume). The TAT enzyme assay was initiated by the addition of 170 μl TAT assay buffer (substrate) for 1 hour. The reaction was terminated by the addition of 30 μl 10N KOH and the 96-well plates incubated for a further 30 min […] to allow formation of the aromatic aldehyde product, p-hydroxybenzaldehyde. Absorbance was read at 340 nm on a spectrophotometer.
Reagents: TAT assay buffer: 0.2 M KH2PO4 pH7.4 containing 5.4 mM L-tyrosine, 10.8 mM α-ketoglutaric acid and 0.06 mM Pyridoxal-5-phosphate monohydrate.
Dexamethasone was used to increase the expression of tyrosine amino transferase in human liver hepatocytes.

The test system of experiment [2] is GR induced transrepression (LPS activated TNFα release). Put plainly: Glucocorticosteroid transrepression assay (LPS activated TNFα release in peripheral blood mononuclear cells). Type of experiment: cell-based. The conditions noted are these: human PBMC, 10 ng/ml LPS; for blockade of dexamethasone induced repression of LPS activated TNFα release (antagonism of transrepression): in presence of 50 nM dexamethasone, FIG. 1b. On the procedure: Using a cell-based model (human peripheral blood mononuclear cells), dexamethasone was administered to the cells and the release of TNFα was measured. After addition of the GR modulator of the present invention, the release of TNFα was again measured and compared to the amount released in the absence of the GR modulator.
Human peripheral blood mononuclear cells were isolated and distributed in 96-well plates at a density of 2×10^5 cells/well in medium. Compounds were tested at 7 concentrations (semi-log dilutions) and prepared at 5× final assay concentration in 1.5% DMSO. Following a preincubation of 30 minutes with compounds the plates are then incubated in presence of 50 nM dexamethasone or media for 30 minutes. TNFα release was activated by overnight incubation with 10 ng/ml LPS. Human TNFα was measured using chemiluminescence detected on the SECTOR® Imager 6000 (Mesoscale). Dexamethasone was used to inhibit LPS activated TNFα release via the glucocorticoid receptor. […] In some cases, CORT-108297 was added in the absence of dexamethasone to determine if CORT-108297 inhibited LPS activated TNFα release.

On to `CCOC[C@]12Cc3cnn(-c4ccc(F)cc4)c3C=C1CCN(S(=O)(=O)c1ccc(C(F)(F)F)cc1)C2` [CORT-108297], for which the “expression of tyrosine amino transferase (increase), compound alone” value in experiment [1] (all concentrations assayed, no dexamethasone, FIG. 2a) was not above 0%. For the same compound, the “inhibition of dexamethasone induced expression of tyrosine amino transferase (antagonism of GR induced transactivation)” value in experiment [1] is on record as “full potent antagonist of GR induced transactivation”. Besides, the “inhibition of LPS activated TNFα release, compound alone (transrepression agonism), in words” value in experiment [2] (FIG. 1a) is on record as “weak partial agonist of GR induced transrepression”. Also, the “maximal inhibition of LPS activated TNFα release, compound alone” value in experiment [2] (at micromolar concentrations, no dexamethasone, FIG. 1a) was 48%. Besides, the “blockade of dexamethasone induced repression of LPS activated TNFα release (antagonism of transrepression)” value in experiment [2] is reported as “only shows partial blockade at higher concentrations”.
`C[C@@H]1C[C@H]2[C@@H]3CCC4=CC(=O)C=C[C@]4(C)[C@@]3(F)[C@@H](O)C[C@]2(C)[C@@]1(O)C(=O)CO` [dexamethasone, reference compound]: the “concentration giving maximal increase in TAT expression (transactivation)” value in experiment [1] (compound alone, FIG. 2a) is reported as “about 100 nM”.
As for `CC#C[C@]1(O)CC[C@H]2[C@@H]3CCC4=CC(=O)CCC4=C3[C@@H](c3ccc(N(C)C)cc3)C[C@@]21C` [mifepristone, reference compound], in experiment [1], the “inhibition of dexamethasone induced expression of tyrosine amino transferase (antagonism of GR induced transactivation)” value is listed as “inhibit the increased expression of tyrosine amino transferase”. In addition, in experiment [2], the “blockade of dexamethasone induced repression of LPS activated TNFα release (antagonism of transrepression)” value is “completely blocks this effect”.
